From patent US12227500B2, “Substituted pyrrolo[2,3-b]pyridines for suppressing toxic endoplasmic reticulum stress” (THE TRUSTEES OF COLUMBIA UNIVERSITY IN THE CITY OF NEW YORK, priority 2018, dated 2025)
Read-outs that look alike come from different tables or passages of the source.

Assays:
Test in all cases: Radiolabeled ATP kinase assay, panel of 371 kinases (Table S6)
Format in all cases: biochemical
[1] = target: T1, panel of 371 human kinases (Homo sapiens, UniProt Q9H093); conditions: SNARK/NUAK2; 0.1 μM; 10 μM ATP; read-out: % Enzyme Activity (relative to DMSO controls)
T1 construct: purchased Reaction Biology Corp
Text: (§1) ; FIG. 38C). […]. Further targeted analyses, such as genetic knock-down or knock-out, may be warranted to parse the role of these additional kinases in our model of neurodegeneration.

[2] = target: T2, panel of 371 human kinases (Homo sapiens, UniProt Q09013); conditions: DMPK; 0.1 μM; 10 μM ATP; read-out: % Enzyme Activity (relative to DMSO controls)
T2 construct: purchased Reaction Biology Corp
Text: as §1

[3] = target: T3, panel of 371 human kinases (Homo sapiens, UniProt P42684); conditions: ABL2/ARG; 0.1 μM; 10 μM ATP; read-out: % Enzyme Activity (relative to DMSO controls)
T3 construct: purchased Reaction Biology Corp
Text: as §1

[4] = target: T4, panel of 371 human kinases (Homo sapiens, UniProt P36888); conditions: FLT3; 0.1 μM; 10 μM ATP; read-out: % Enzyme Activity (relative to DMSO controls)
T4 construct: purchased Reaction Biology Corp
Text: as §1

[5] = target: T5, panel of 371 human kinases (Homo sapiens, UniProt Q9H3Y6); conditions: SRMS; 0.1 μM; 10 μM ATP; read-out: % Enzyme Activity (relative to DMSO controls)
T5 construct: purchased Reaction Biology Corp
T5 sequence (Q9H3Y6 whole entry): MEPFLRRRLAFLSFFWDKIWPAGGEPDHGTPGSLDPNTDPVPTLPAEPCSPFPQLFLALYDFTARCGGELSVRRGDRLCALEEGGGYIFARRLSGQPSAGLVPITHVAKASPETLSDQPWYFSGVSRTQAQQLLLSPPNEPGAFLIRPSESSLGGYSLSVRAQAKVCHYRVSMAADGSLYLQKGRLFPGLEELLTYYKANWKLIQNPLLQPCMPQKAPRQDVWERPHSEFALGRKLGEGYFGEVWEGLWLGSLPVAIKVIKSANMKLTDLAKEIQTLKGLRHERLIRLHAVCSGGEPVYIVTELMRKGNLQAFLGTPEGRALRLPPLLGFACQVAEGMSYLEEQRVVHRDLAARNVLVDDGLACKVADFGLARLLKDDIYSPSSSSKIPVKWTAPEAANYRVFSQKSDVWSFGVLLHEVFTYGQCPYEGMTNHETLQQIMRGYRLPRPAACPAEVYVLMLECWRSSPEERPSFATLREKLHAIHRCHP
Text: as §1

[6] = target: T6, panel of 371 human kinases (Homo sapiens, UniProt P49761); conditions: CLK3; 0.1 μM; 10 μM ATP; read-out: % Enzyme Activity (relative to DMSO controls)
T6 construct: purchased Reaction Biology Corp
Text: as §1

[7] = target: T7, panel of 371 human kinases (Homo sapiens, UniProt Q9H792); conditions: PEAK1; 0.1 μM; 10 μM ATP; read-out: % Enzyme Activity (relative to DMSO controls)
T7 construct: purchased Reaction Biology Corp
Text: as §1

[8] = target: T8, panel of 371 human kinases (Homo sapiens, UniProt O00506); conditions: STK25/YSK1; 0.1 μM; 10 μM ATP; read-out: % Enzyme Activity (relative to DMSO controls)
T8 construct: purchased Reaction Biology Corp
Text: as §1

[9] = target: T9, panel of 371 human kinases (Homo sapiens, UniProt Q9Y6E0); conditions: MST3/STK24; 0.1 μM; 10 μM ATP; read-out: % Enzyme Activity (relative to DMSO controls)
T9 construct: purchased Reaction Biology Corp
T9 sequence (Q9Y6E0 whole entry): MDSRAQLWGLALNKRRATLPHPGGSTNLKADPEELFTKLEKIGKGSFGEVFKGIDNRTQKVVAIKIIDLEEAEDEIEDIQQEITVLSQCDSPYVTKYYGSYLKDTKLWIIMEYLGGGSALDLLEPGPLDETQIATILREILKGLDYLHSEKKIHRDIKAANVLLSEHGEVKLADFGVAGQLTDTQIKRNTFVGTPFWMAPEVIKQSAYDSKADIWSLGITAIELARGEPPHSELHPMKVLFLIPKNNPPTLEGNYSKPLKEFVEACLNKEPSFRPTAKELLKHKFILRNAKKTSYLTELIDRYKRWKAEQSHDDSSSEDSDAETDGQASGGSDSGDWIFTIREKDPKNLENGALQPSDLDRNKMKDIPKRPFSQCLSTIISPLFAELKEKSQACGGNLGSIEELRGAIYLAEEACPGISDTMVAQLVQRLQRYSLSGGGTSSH
Text: as §1

[10] = target: T10, panel of 371 human kinases (Homo sapiens, UniProt P51812); conditions: RSK2; 0.1 μM; 10 μM ATP; read-out: % Enzyme Activity (relative to DMSO controls)
T10 construct: purchased Reaction Biology Corp
Text: as §1

[11] = target: T11, panel of 371 human kinases (Homo sapiens, UniProt P29317); conditions: EPHA2; 0.1 μM; 10 μM ATP; read-out: % Enzyme Activity (relative to DMSO controls)
T11 construct: purchased Reaction Biology Corp
Text: as §1

[12] = target: T12, panel of 371 human kinases (Homo sapiens, UniProt P24723); conditions: PKCeta; 0.1 μM; 10 μM ATP; read-out: % Enzyme Activity (relative to DMSO controls)
T12 construct: purchased Reaction Biology Corp
T12 sequence (P24723 whole entry): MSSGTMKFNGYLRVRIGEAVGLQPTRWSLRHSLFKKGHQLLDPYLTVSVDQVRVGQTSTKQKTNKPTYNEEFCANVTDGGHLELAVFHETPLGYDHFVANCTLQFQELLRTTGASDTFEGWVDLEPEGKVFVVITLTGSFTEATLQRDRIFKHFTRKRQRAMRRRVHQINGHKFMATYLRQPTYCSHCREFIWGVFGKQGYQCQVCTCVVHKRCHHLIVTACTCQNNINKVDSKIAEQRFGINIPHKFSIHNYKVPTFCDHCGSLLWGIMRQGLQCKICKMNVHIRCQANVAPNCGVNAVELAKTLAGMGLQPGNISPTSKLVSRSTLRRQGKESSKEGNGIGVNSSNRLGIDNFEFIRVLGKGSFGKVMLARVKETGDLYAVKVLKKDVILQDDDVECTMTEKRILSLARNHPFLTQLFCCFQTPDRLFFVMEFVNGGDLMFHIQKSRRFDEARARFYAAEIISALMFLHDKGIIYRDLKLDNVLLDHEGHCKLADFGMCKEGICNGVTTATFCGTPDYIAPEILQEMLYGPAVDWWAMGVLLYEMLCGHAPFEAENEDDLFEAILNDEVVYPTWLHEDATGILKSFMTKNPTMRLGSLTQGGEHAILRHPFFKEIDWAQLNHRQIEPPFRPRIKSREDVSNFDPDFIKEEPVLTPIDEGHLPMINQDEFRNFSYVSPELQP
Text: as §1

[13] = target: T13, panel of 371 human kinases (Homo sapiens, UniProt Q8IW41); conditions: MAPKAPK5/PRAK; 0.1 μM; 10 μM ATP; read-out: % Enzyme Activity (relative to DMSO controls)
T13 construct: purchased Reaction Biology Corp
Text: as §1

[14] = target: T14, panel of 371 human kinases (Homo sapiens, UniProt Q9NYL2); conditions: ZAK/MLTK; 0.1 μM; 10 μM ATP; read-out: % Enzyme Activity (relative to DMSO controls)
T14 construct: purchased Reaction Biology Corp
Text: as §1

[15] = target: T15, panel of 371 human kinases (Homo sapiens, UniProt P46734); conditions: MEK3; 0.1 μM; 10 μM ATP; read-out: % Enzyme Activity (relative to DMSO controls)
T15 construct: purchased Reaction Biology Corp
Text: as §1

[16] = target: T16, panel of 371 human kinases (Homo sapiens, UniProt Q9P1W9); conditions: PIM2; 0.1 μM; 10 μM ATP; read-out: % Enzyme Activity (relative to DMSO controls)
T16 construct: purchased Reaction Biology Corp
Text: as §1

[17] = target: T17, panel of 371 human kinases (Homo sapiens, UniProt P37023); conditions: ALK1/ACVRL1; 0.1 μM; 10 μM ATP; read-out: % Enzyme Activity (relative to DMSO controls)
T17 construct: purchased Reaction Biology Corp
Text: as §1

[18] = target: T18, panel of 371 human kinases (Homo sapiens, UniProt O00444); conditions: PLK4/SAK; 0.1 μM; 10 μM ATP; read-out: % Enzyme Activity (relative to DMSO controls)
T18 construct: purchased Reaction Biology Corp
Text: as §1

[19] = target: T19, panel of 371 human kinases (Homo sapiens, UniProt Q86UX6); conditions: STK32C/YANK3; 0.1 μM; 10 μM ATP; read-out: % Enzyme Activity (relative to DMSO controls)
T19 construct: purchased Reaction Biology Corp
T19 sequence (Q86UX6 whole entry): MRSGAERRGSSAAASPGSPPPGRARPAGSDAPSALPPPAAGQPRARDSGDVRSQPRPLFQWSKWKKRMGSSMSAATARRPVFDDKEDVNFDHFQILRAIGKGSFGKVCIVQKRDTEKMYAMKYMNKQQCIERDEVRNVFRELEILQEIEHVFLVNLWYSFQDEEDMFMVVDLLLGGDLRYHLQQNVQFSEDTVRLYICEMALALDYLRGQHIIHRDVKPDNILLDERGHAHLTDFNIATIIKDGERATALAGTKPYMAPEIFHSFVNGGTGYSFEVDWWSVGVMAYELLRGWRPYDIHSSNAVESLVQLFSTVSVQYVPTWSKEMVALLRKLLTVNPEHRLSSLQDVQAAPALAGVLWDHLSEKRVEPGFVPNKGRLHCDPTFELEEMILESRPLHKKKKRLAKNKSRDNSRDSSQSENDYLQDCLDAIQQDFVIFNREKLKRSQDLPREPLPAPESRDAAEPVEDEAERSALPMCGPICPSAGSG
Text: as §1

[20] = target: T20, panel of 371 human kinases (Homo sapiens, UniProt Q13233); conditions: MEKK1; 0.1 μM; 10 μM ATP; read-out: % Enzyme Activity (relative to DMSO controls)
T20 construct: purchased Reaction Biology Corp
T20 sequence (Q13233 whole entry): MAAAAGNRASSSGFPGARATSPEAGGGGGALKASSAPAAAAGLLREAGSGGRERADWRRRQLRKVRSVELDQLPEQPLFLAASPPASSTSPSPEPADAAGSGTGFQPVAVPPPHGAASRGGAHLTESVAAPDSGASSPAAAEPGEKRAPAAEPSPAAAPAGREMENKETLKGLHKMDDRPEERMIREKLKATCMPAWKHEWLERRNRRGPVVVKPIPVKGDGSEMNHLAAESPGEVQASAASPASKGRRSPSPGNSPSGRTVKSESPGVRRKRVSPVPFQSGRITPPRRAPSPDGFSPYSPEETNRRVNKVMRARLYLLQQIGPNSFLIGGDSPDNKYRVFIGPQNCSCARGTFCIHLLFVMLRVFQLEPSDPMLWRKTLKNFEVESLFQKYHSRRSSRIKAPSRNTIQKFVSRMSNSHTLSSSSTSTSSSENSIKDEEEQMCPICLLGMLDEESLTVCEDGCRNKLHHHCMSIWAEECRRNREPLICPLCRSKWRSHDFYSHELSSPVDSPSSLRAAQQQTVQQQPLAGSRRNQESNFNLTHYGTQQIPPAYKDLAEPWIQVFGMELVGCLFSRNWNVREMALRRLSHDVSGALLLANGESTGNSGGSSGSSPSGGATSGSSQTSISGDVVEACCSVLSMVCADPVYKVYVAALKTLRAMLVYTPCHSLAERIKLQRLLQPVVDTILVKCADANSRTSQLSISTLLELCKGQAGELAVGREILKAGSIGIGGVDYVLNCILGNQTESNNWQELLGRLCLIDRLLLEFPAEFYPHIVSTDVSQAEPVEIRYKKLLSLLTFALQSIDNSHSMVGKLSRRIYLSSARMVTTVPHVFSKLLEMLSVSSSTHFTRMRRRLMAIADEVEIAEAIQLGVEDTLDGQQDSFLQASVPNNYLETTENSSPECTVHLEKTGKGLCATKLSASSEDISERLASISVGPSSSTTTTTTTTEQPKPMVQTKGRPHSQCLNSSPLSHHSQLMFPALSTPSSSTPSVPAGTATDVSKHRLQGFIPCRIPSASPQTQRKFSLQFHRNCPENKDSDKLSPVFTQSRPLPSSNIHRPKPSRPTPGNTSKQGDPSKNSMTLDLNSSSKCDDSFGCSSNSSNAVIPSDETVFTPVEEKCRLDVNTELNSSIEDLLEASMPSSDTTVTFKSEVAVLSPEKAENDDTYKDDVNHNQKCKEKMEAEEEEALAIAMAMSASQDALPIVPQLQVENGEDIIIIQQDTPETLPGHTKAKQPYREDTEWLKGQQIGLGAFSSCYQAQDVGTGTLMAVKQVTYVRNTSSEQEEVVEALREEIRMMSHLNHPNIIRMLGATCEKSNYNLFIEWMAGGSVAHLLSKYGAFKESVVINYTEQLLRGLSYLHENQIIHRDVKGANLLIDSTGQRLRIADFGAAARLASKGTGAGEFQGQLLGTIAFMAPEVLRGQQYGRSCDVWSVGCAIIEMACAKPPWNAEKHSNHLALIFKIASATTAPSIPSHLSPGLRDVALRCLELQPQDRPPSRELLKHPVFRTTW
Text: as §1

[21] = target: T21, panel of 371 human kinases (Homo sapiens, UniProt Q00534); conditions: 0.1 μM, 10 μM ATP, read-out: % Enzyme Activity (relative to DMSO controls)
T21 construct: purchased Reaction Biology Corp
T21 sequence (Q00534 whole entry): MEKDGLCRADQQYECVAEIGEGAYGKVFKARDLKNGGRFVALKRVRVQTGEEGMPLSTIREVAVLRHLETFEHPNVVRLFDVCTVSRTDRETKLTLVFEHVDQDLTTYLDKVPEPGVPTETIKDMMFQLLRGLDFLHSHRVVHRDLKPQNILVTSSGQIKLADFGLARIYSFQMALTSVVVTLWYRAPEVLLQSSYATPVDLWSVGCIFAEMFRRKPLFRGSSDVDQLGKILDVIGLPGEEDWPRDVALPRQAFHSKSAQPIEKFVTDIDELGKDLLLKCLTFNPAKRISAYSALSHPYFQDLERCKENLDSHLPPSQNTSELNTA
Text: as §1

[22] = target: T22, panel of 371 human kinases (Homo sapiens, UniProt Q8IU85); conditions: CAMK1d; 0.1 μM; 10 μM ATP; read-out: % Enzyme Activity (relative to DMSO controls)
T22 construct: purchased Reaction Biology Corp
T22 sequence (Q8IU85 whole entry): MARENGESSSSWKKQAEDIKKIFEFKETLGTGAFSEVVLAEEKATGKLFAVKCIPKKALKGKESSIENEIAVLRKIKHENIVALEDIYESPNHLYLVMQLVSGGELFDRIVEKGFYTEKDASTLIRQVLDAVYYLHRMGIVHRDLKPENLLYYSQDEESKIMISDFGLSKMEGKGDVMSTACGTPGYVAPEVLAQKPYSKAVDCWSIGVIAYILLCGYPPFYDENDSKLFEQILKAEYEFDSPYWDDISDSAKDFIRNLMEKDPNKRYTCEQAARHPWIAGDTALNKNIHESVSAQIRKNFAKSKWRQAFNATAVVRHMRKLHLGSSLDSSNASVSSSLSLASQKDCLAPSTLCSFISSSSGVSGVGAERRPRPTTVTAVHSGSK
Text: as §1

[23] = target: T23, panel of 371 human kinases (Homo sapiens, UniProt O15075); conditions: DCAMKL1; 0.1 μM; 10 μM ATP; read-out: % Enzyme Activity (relative to DMSO controls)
T23 construct: purchased Reaction Biology Corp
Text: as §1

[24] = target: T24, panel of 371 human kinases (Homo sapiens, UniProt Q15835); conditions: GRK1; 0.1 μM; 10 μM ATP; read-out: % Enzyme Activity (relative to DMSO controls)
T24 construct: purchased Reaction Biology Corp
T24 sequence (Q15835 whole entry): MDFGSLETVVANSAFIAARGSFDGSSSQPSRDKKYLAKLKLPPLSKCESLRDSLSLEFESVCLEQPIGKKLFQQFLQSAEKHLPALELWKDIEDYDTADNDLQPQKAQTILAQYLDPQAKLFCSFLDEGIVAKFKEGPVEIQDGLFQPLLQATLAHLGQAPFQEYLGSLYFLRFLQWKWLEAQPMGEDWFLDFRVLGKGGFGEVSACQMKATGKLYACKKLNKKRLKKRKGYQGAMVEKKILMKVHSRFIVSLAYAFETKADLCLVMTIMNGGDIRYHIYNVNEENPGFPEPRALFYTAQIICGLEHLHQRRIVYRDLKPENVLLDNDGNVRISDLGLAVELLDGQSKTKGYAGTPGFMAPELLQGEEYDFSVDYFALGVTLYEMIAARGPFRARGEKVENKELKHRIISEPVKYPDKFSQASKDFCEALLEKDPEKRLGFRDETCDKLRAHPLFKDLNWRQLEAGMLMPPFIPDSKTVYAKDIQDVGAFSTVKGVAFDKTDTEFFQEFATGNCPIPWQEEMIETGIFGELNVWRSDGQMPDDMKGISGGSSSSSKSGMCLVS
Text: as §1

Row | Structure (SMILES) | remaining activity at 0.1 µM [1] [%] | remaining activity at 0.1 µM [2] [%] | remaining activity at 0.1 µM [3] [%] | remaining activity at 0.1 µM [4] [%] | remaining activity at 0.1 µM [5] [%] | remaining activity at 0.1 µM [6] [%] | remaining activity at 0.1 µM [7] [%] | remaining activity at 0.1 µM [8] [%] | remaining activity at 0.1 µM [9] [%] | remaining activity at 0.1 µM [10] [%] | remaining activity at 0.1 µM [11] [%] | remaining activity at 0.1 µM [12] [%] | remaining activity at 0.1 µM [13] [%] | remaining activity at 0.1 µM [14] [%] | remaining activity at 0.1 µM [15] [%] | remaining activity at 0.1 µM [16] [%] | remaining activity at 0.1 µM [17] [%] | remaining activity at 0.1 µM [18] [%] | remaining activity at 0.1 µM [19] [%] | remaining activity at 0.1 µM [20] [%] | also measured
1 | CN1CCN(Cc2ccc(-c3cnc4[nH]cc(-c5ccc6[nH]ccc6c5)c4c3)cc2)CC1 [Compound 1, 3-(1H-Indol-5-yl)-5-(4-((4-methylpiperazin-1-yl)methyl)phenyl)-1H-pyrrolo[2,3-b]pyridine, reference compound] | 82.8 | 96.6 | 76.8 | 22.3 | 104 | 95.3 | 109 | 102 | 71.2 | 105 | 93.6 | 103 | 78.5 | 91.3 | 101 | 106 | 106 | 97 | 98.3 | 102 | remaining activity at 0.1 µM ([21]; CDK6/cyclin D1): 63.1%; remaining activity at 0.1 µM ([21]; CDK6/cyclin D3): 92.2%; remaining activity at 0.1 µM [22]: 101%; remaining activity at 0.1 µM [23]: 97.2%; remaining activity at 0.1 µM [24]: 107%
2 | OCCN1CCN(Cc2ccc(-c3cnc4[nH]cc(-c5cccc(Cl)c5)c4c3)cc2)CC1 [Compound 12k, 2-(4-(4-(3-(3-Chlorophenyl)-1H-pyrrolo[2,3-b]pyridin-5-yl)benzyl)piperazin-1-yl)ethan-1-ol] | 59.5 | 97.7 | 75.1 | 29.4 | 103 | 91 | 101 | 72.4 | 78.4 | 77.3 | 92.3 | 94.6 | 84.4 | 77.9 | 99.7 | 106 | 100 | 93.4 | 93 | 94 | remaining activity at 0.1 µM ([21]; CDK6/cyclin D1): 30.7%; remaining activity at 0.1 µM ([21]; CDK6/cyclin D3): 68.2%; remaining activity at 0.1 µM [22]: 96.8%; remaining activity at 0.1 µM [23]: 94.2%; remaining activity at 0.1 µM [24]: 92%
